Results published in patent publication US5004756A, “Anti-cancer activity potentiator” (priority 1988, dated 1991).
Values after ≈ are worked out from the molar mass of the structure shown. Like-named read-outs stand apart in the source and are kept apart here.

Tests used:
[1] = system: V79/S; test: Colony formation (proliferation) inhibition, sensitive Chinese hamster cells (A-I Part 1); format: cell-based; conditions: Cricetulus griseus, 216 h
Description: (§1) Sensitive cell line V79/S and ADM-resistant cell line V79/ADM of the Chinese hamster were used, and sensitive cell line PLC/S and cholchicin-resistant cell line PLC/Col, as human hepatoma cells.
(§2) The sensitive cell lines (400 cells) or the resistant cell lines (600 cells) were each incubated for 24 hours in 10 ml of Eagle's MEM medium containing 10% bovine serum. Each of the drugs indicated in Table 1 below was dissolved in ethanol, and 50 microliters of the resulting solution was added to the medium. The incubation was further carried out for 9 days. The concentration of the drug which inhibits 50% of the colony formation (proliferation) of the tumor cells was calculated.
(§3) V79/S and V79/ADM were tested by using all of the drugs described above, but PLC/S and PLC/Col were tested by using only the malate of formula (I), adriamycin and peplomycin.
(§4) The concentrations (micrograms/ml) required to inhibit 50% of the proliferation of the tumor cells, expressed by IC50, are shown in Table 1.

[2] = system: V79/ADM; test: Colony formation (proliferation) inhibition, ADM-resistant Chinese hamster cells (A-I Part 1); format: cell-based; conditions: Cricetulus griseus, 216 h
Description: as §1, §2, §3, §4

[3] = system: clinically isolated human cancer cells (lung adenocarcinoma, lung squamous cell carcinoma, osteosarcoma, ovarian carcinoma); test: Anti-tumor activity on clinically isolated human cancer cells, morphological changes (A-I Part 2); format: cell-based
Description: Lung adenocarcinoma, lung squamous cell carcinoma, osteosarcoma and ovarian carcinoma were selected as clinically isolated human cancer cells, and the anti-tumor activities of various drugs were examined. Specifically, various tumor tissues were individually cut to thin pieces by a razor, and by washing in saline by using a 1 mm mesh, the connective tissues were removed. The resulting solution was centrifuged at 1000 rpm for 1 minute to remove necrotizing substances. Washing with saline gave tumor cells.
They were incubated at 37° for 4 to 8 hours. Thereafter, pumping was carried out to disperse the tissue pieces. Then, centrifugation at 1000 rpm for 5 minutes, cell coating and Giemsa staining were performed. The anti-tumor activity of each drug was examined on the basis of observation of the morphological changes of the tumor cells under a microscope.
The experiment was conducted on two examples of each tumor cells (total 8 examples).

[4] = system: V79/S; test: Anti-cancer activity potentiating action, colony formation, V79/S parent cells (A-III); format: cell-based, Chinese hamster; conditions: for IC50: Cricetulus griseus
Description: (§5) The anti-cancer activity potentiating action of the malate of formula (I) was examined using Chinese hamster cells (sensitive cell line V79/S and ADM-resistant cell line V79/ADM), human hepatoma cells (sensitive cell line PLC/S and colchicin-resistant cell line PLC/Col) and mouse leukemia cells (sensitive cell line L5178Y/S) and aclarubicin-resistant cell line L5178Y/ACR).
(§6) Of these tumor cells, the sensitive cells (400 cells) and the resistant cells (600 cells) were each incubated in 10 ml of Eagle's MEM medium containing 10% bovine serum for 24 hours, and then each of the test drugs indicated in Table 6 was added. Thereafter, the incubation was carried out for 9 days. The concentration (IC50 : micrograms/ml) of the test drug required to inhibit 50% of the colony formation (proliferation) of the tumor cells was calculated.
(§7) (A) Chinese hamster V79 cells
(§8) As anti-cancer agents, there were used adriamycin (ADM), aclarubicin (ACR), actinomycin D (ACD), 5-fluorouracil (5-FU), cytarabin (Ara-C), cisplatin (CDDP), methotrexate (MTX), mitomycin C (MMC), nimustine (ACNU), mitoxantrone, etoposide ([…]), vincristine (VCR), bleomycin (BLM) and peplomycin (PEP). For the sensitive cells, the anti-cancer agents were used in combination with 10 micrograms/ml of the malate of formula (I), and for the resistant cells, the anti-cancer agents were used in combination with the malate of formula (I) 3 micrograms/ml, 5 micrograms/ml, and 10 micrograms/ ml.

[5] = system: V79/ADM; test: Anti-cancer activity potentiating action, colony formation, V79/ADM resistant cells (A-III); format: cell-based, Chinese hamster; conditions: for IC50: Cricetulus griseus
Description: as §5, §6, §7, §8

[6] = system: L5178Y/S; test: Anti-cancer activity potentiating action, colony formation, mouse leukemia sensitive cells (table head prints PLC/S); format: cell-based; conditions: head prints PLC/S (parent cells); for IC50: Mus musculus, L5178Y
Description: as §5, §6
(§9) Adriamycin (ADM) and aclarubicin (ACR) as anti-cancer agents were used in combination with 20 micrograms/ml of the malate of formula (I).

[7] = system: L5178Y/ACR; test: Anti-cancer activity potentiating action, colony formation, aclarubicin-resistant mouse leukemia cells (table head prints PLC/ACR); format: cell-based; conditions: for IC50: Mus musculus, L5178Y
Description: as §5, §6, §9

[8] = system: PLC/S; test: Colony formation (proliferation) inhibition, sensitive human hepatoma cells (A-I Part 1); format: cell-based; conditions: Homo sapiens, 216 h
Description: as §1, §2, §3, §4

[9] = system: PLC/Col; test: Colony formation (proliferation) inhibition, colchicin-resistant human hepatoma cells (A-I Part 1); format: cell-based; conditions: Homo sapiens, 216 h
Description: as §1, §2, §3, §4

[10] = system: Lewis lung cancer cells; test: Life prolongation of BDF1 mice with Lewis lung cancer (A-II Part 2); format: in vivo, mouse (male BDF1)
Description: Male BDF1 mice having a body weight of 20±2 g (6 per group) were used, and as tumor cells, Lewis lung cancer cells were transplanted under the skin of the side abdomen of each of the mice at a rate of 10^5 cells. […] The life prolongation rate of the mice in each group was determined by the treated group/non-treated control group (T/C %).

[11] = system: PLC/S; test: Anti-cancer activity potentiating action, colony formation, PLC/S parent cells (A-III); format: cell-based, human; conditions: for IC50: Homo sapiens
Description: as §5, §6
(§10) As anti-cancer agents, adriamycin (ADM) and peplomycin (PEP) were used in combination with the malate of formula (I) (5 micrograms/ml).

[12] = system: PLC/Col; test: Anti-cancer activity potentiating action, colony formation, PLC/Col resistant cells (A-III); format: cell-based, human; conditions: for IC50: Homo sapiens
Description: as §5, §6, §10

[13] = system: Human stomach cancer cell line H-81; test: Anti-cancer activity potentiating action in nude mice with human stomach cancer H-81 (A-V); format: in vivo, human tumor in ICR nude mice
Text: ICR nude mice (4-5 weeks old; 7 per group) were used. Human stomach cancer cell line H-81 was used as tumor cells. Tissue pieces, 2 mm in square, were taken, and transplanted subcutaneously to the right back portion of the nude mice. […] The sequence of the drug administration was as follows: […] The administration was further repeated every five days from the day on which the administration was first carried out. The total number of administrations of each drug was four. […] The measurement was made on the days on which the drugs were administered, and four weeks after the start of drug administration.

[14] = system: human tumor cells (muscle fibrosarcoma HT-1080); test: Anti-cancer activity potentiating action in nude mice with HT-1080 (A-VI); format: in vivo, human tumor in ICR nude mice; conditions: ADM 4 mg/kg i.v., days 5, 10, 15, 20; day 36
Description: ICR nude mice, 6 per group, were used, and the experiment was conducted substantially in accordance with the procedure described in A-V.
As tumor cells, human tumor cells (muscle fibrosarcoma HT-1080) were used, and 5 days after the transplantation, drug administration was started.
The administration was further performed every 5 days from the day of starting the administration, and the total number of administrations was therefore 4.
Mitomycin C (MMC) was tested by the same way as above.
Thirty-six days after the transplantation of the tumor, a tumor mass was extracted and its weight was measured. From the difference of the weight of the tumor from the non-treated control group, the tumor growth inhibition ratio (%) was calculated.

[15] = read-out: IC50, anti-cancer agent alone
[16] = read-out: IC50 in combination with compound (I)
[17] = V79/S, with compound (I) 10 μg/ml
[18] = V79/ADM, with compound (I) 10 μg/ml
[19] = alone, Table 7 lower part, read-out: IC50, anti-cancer agent alone
[20] = with compound (I) 20 μg/ml, read-out: IC50 in combination with compound (I)

In the case of `CC[C@@]1(O)C[C@H](O[C@H]2C[C@H](N(C)C)[C@H](O[C@H]3C[C@H](O)[C@H](O[C@H]4CCC(=O)[C@H](C)O4)[C@H](C)O3)[C@H](C)O2)c2c(cc3c(c2O)C(=O)c2c(O)cccc2C3=O)[C@H]1C(=O)OC` [ACR, aclarubicin], the IC50 [1] is reported as 0.037 µg/mL (≈ 0.0456 µM), the IC50 [2] is reported as 0.27 µg/mL (≈ 0.333 µM) and the “Efficacy ratio (rated significant by Fisher's test)” value ([3]; 0.2 μg/ml) is reported as 2/8. For the same compound, the IC50 [4, 15] was 0.037 µg/mL, the IC50 [4, 16] was 0.027 µg/mL and the Potentiation activity [4, 17] was 1.37 times. For the same compound, the IC50 [5, 15] was 0.27 µg/mL, the IC50 [5, 16] was 0.024 µg/mL and the Potentiation activity [5, 18] was 11.3 times. For the same compound, the IC50 [6, 19] was 0.019 µg/mL, the IC50 [6, 20] was 0.017 µg/mL and the Potentiation activity ([6]; with compound (I) 20 μg/ml) was 1.0 times. It also gave an IC50 [7, 19] of 0.07 µg/mL, an IC50 [7, 20] of 0.043 µg/mL and a Potentiation activity ([7]; with compound (I) 20 μg/ml) of 1.8 times.
`COc1cccc2c1C(=O)c1c(O)c3c(c(O)c1C2=O)C[C@@](O)(C(=O)CO)C[C@@H]3O[C@H]1C[C@H](N)[C@H](O)[C@H](C)O1` [ADM, adriamycin] was tested, and the IC50 [1] was 0.057 µg/mL (≈ 0.105 µM), the IC50 [2] was 8.8 µg/mL (≈ 16.2 µM) and the IC50 [8] was 0.005 µg/mL (≈ 0.0092 µM). For the same compound, the IC50 [9] was 0.08 µg/mL (≈ 0.147 µM), the “Efficacy ratio (rated significant by Fisher's test)” value ([3]; 0.3 μg/ml) was 3/8 and the “T/C (life prolongation rate)” value ([10]; 1.25 mg/kg i.v.) was 218%. For the same compound, the “T/C (life prolongation rate)” value ([10]; 2.5 mg/kg i.v. (lipid emulsion calculated as malate)) was 173%, the “T/C (life prolongation rate)” value ([10]; 5.0 mg/kg i.v. (lipid emulsion calculated as malate)) was 241% and the IC50 ([4]; V79/S, alone, Table 6, read-out: IC50, anti-cancer agent alone) was 0.057 µg/mL. It also gave an IC50 ([4]; V79/S, with compound (I) 10 μg/ml, read-out: IC50 in combination with compound (I)) of 0.008 µg/mL, a Potentiation activity [4, 17] of 7.1 times and an IC50 ([5]; V79/ADM, alone, Table 6, read-out: IC50, anti-cancer agent alone) of 8.8 µg/mL. For the same compound, the IC50 ([5]; V79/ADM, with compound (I) 10 μg/ml, read-out: IC50 in combination with compound (I)) was 0.25 µg/mL, the Potentiation activity [5, 18] was 35.2 times and the IC50 [11, 15] was 0.005 µg/mL. It also gave an IC50 [11, 16] of 0.0053 µg/mL, a Potentiation activity ([11]; PLC/S, with compound (I) 5 μg/ml) of 1.0 times and an IC50 [12, 15] of 0.08 µg/mL. For the same compound, the IC50 [12, 16] was 0.027 µg/mL, the Potentiation activity ([12]; PLC/Col, with compound (I) 5 μg/ml) was 3.0 times and the IC50 [6, 19] was 0.048 µg/mL. The IC50 [6, 20] was 0.016 µg/mL, the Potentiation activity ([6]; with compound (I) 20 μg/ml) was 3.0 times and the IC50 [7, 19] was 0.06 µg/mL. The IC50 [7, 20] was 0.18 µg/mL, the Potentiation activity ([7]; with compound (I) 20 μg/ml) was 3.7 times and the “Tumor growth inhibition rate” value ([13]; 2 mg/kg i.v., 4 weeks later, **p < 0.1 vs control) was 45.2%. The “Tumor growth inhibition rate” value ([13]; 2 mg/kg i.v., 5 days later) was 16.5%, the “Tumor growth inhibition rate” value ([13]; 2 mg/kg i.v., 10 days later) was 45.7% and the “Tumor growth inhibition rate” value ([13]; 2 mg/kg i.v., 15 days later) was 49.5%. For the same compound, the “Tumor growth inhibition rate” value ([13]; ADM 5 mg/kg i.v. singly, 4 weeks later, *p < 0.5 vs control) was 59.7%, the “Tumor growth inhibition ratio” value [14] was 96.1% and the Tumor weight [14] was 0.14 ± 0.32.
